One molecule from ChEMBL document CHEMBL6071156 (Eur J Med Chem, 2024) can be followed below.

Where only a bound is given, the exact number is not on record here.

In one series the target is T1, CYP1A (Homo sapiens, UniProt P04798+P05177).
T1 sequence (P04798 whole entry): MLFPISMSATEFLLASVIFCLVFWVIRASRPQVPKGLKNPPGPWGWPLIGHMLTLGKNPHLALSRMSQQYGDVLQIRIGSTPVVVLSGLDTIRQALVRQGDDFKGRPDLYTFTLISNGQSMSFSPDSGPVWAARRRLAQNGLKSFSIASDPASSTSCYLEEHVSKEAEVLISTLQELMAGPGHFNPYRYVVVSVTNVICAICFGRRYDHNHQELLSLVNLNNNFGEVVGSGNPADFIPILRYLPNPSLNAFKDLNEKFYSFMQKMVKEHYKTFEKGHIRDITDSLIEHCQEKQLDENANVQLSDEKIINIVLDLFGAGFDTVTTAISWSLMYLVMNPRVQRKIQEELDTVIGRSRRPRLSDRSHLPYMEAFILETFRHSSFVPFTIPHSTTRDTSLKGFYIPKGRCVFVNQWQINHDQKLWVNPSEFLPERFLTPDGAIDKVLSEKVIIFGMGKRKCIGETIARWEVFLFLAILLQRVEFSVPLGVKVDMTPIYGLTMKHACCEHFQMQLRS
T1 sequence (P05177 whole entry): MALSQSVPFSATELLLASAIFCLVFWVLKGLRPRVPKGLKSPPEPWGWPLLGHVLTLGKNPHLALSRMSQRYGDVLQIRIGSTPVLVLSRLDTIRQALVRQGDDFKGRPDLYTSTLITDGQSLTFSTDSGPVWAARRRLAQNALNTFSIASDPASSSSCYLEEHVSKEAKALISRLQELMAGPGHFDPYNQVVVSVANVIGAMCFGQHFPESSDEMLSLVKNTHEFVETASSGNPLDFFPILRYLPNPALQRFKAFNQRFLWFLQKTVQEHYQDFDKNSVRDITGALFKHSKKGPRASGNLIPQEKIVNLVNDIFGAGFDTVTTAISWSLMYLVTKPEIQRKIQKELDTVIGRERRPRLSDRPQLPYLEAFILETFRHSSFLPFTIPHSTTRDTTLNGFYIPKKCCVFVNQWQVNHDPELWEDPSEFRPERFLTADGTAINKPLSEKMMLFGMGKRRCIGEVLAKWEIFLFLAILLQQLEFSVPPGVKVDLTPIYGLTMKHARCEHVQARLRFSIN
Kind of series: Inhibition of CYP1A (unknown origin). Format: ADME, protein assay.

The test system of the next series is Chikungunya virus. Kind of series: Antiviral activity against CHIKV infected in C57BL/6 mouse assessed as virus titers at 100 mg/kg/day, ip measured after 6 days post infection (reference value: 5.3+/0.3). It is filed as functional. The following applies: time 6 day.

A word on the IC50: it is the midpoint of a concentration-inhibition curve. Take `CC1CCNc2c(C(=O)NC/C=C/S(C)(=O)=O)cccc21` (configuration not stated): the IC50 against CYP1A was more than 100 µM. The Activity in the series with Chikungunya virus was determined as 5.8.
